Results as given in the CheMixHub drug solubility set.

Experiment: xn = mol fraction of the nth substance listed, in the solute-free solvent

Nc1ccc(Oc2ccc(N)cc2)cc1 + CC(=O)N(C)C + CCO
solubility (g/100 g solution)
Conditions | 293.15 K | 298.15 K | 303.15 K | 308.15 K | 313.15 K | 318.15 K | 323.15 K | 328.15 K | 333.15 K
x2 = 0.0555 | 0.741 | 0.782 | 0.905 | 1.15 | 1.39 | 1.68 | 1.96 | 2.28 | 2.64
x2 = 0.1168 | 1.32 | 1.4 | 1.59 | 1.94 | 2.32 | 2.66 | 3 | 3.15 | 4.12
x2 = 0.1848 | 2.35 | 2.56 | 2.88 | 3.13 | 3.63 | 4.09 | 4.68 | 4.75 | 6.13
x2 = 0.2606 | 3.91 | 4.24 | 4.6 | 5.13 | 5.62 | 6.3 | 7.13 | 7.67 | 8.79
x2 = 0.3459 | 6.23 | 6.74 | 7.16 | 7.94 | 8.38 | 9.29 | 10.3 | 11 | 12.2
x2 = 0.4423 | 9.4 | 10 | 10.6 | 11.4 | 12 | 13.1 | 14 | 15.2 | 16.3
x2 = 0.5523 | 13.3 | 14.1 | 14.8 | 15.3 | 16.3 | 17.5 | 18.6 | 19.7 | 21.1
x2 = 0.679 | 17.9 | 18.6 | 19.3 | 20.2 | 21 | 22 | 23.2 | 24.2 | 25.1
x2 = 0.8264 | 22.6 | 23.5 | 24 | 24.5 | 25.6 | 26.7 | 27.4 | 28.7 | 30

Cc1c(Br)cccc1C(=O)O + CN(C)C=O + CC#N
solubility (g/100 g solution)
Conditions | x2 = 0.106 | x2 = 0.224 | x2 = 0.355 | x2 = 0.502 | x2 = 0.668 | x2 = 0.858
278.15 K | 6.4 | 10.6 | 14.2 | 17.6 | 20.8 | 23.6
283.15 K | 7.69 | 12.4 | 16.8 | 20.7 | 24.4 | 25.8
288.15 K | 8.95 | 14.9 | 19.8 | 24.3 | 28.2 | 32
293.15 K | 11 | 17.3 | 23 | 28 | 32.5 | 36.6
298.15 K | 12.6 | 20.2 | 26.5 | 32.1 | 37.1 | 41.6
303.15 K | 14.5 | 23.3 | 30.5 | 36.5 | 42.1 | 47.1
308.15 K | 17.1 | 26.8 | 34.4 | 41.3 | 47.2 | 52.7
313.15 K | 19.5 | 30.5 | 38.9 | 46.3 | 52.7 | 58.5
318.15 K | 22.6 | 34.5 | 43.6 | 51.4 | 58.1 | 64.3
323.15 K | 26 | 38.8 | 48.6 | 56.7 | 63.8 | 70.3
328.15 K | 29.2 | 43.1 | 53.5 | 62 | 69.3 | 76

CC(N)C(=O)O (configuration not stated) + O + CO
solubility (g/100 g solution)
Conditions | x2 = 0.1 | x2 = 0.2 | x2 = 0.3 | x2 = 0.4 | x2 = 0.5 | x2 = 0.6 | x2 = 0.7 | x2 = 0.8 | x2 = 0.9
283.15 K | 0.123 | 0.167 | 0.315 | 0.44 | 0.705 | 1.21 | 1.99 | 3.46 | 6.52
293.15 K | 0.142 | 0.222 | 0.377 | 0.571 | 0.899 | 1.53 | 2.53 | 4.26 | 7.7
303.15 K | 0.159 | 0.281 | 0.434 | 0.667 | 1.11 | 1.88 | 3.07 | 5.17 | 8.92
313.15 K | 0.178 | 0.331 | 0.492 | 0.816 | 1.39 | 2.35 | 3.85 | 6.26 | 10.4
323.15 K | 0.193 | 0.424 | 0.627 | 1.03 | 1.77 | 2.95 | 4.69 | 7.21 | 11.9

O=C(O)CC(O)C(=O)O (configuration not stated) + CC#N + CCCCOC(C)=O
solubility (g/100 g solution)
Conditions | 278.15 K | 283.15 K | 288.15 K | 293.15 K | 298.15 K | 303.15 K | 308.15 K | 313.15 K | 318.15 K | 323.15 K
x2 = 0.4143 | 1.23 | 1.39 | 1.63 | 1.79 | 2.06 | 2.36 | 2.73 | 3.15 | 3.71 | 4.37
x2 = 0.5481 | 1.54 | 1.77 | 2.1 | 2.45 | 2.86 | 3.39 | 3.96 | 4.62 | 5.41 | 6.44
x2 = 0.6535 | 2.05 | 2.38 | 2.8 | 3.32 | 3.93 | 4.61 | 5.48 | 6.51 | 7.78 | 9.24
x2 = 0.7389 | 2.71 | 3.15 | 3.56 | 4.05 | 4.88 | 5.66 | 6.77 | 7.85 | 9.29 | 11.2
x2 = 0.8093 | 3.25 | 3.73 | 4.29 | 4.93 | 5.81 | 6.58 | 7.95 | 9.34 | 10.9 | 13.2
x2 = 0.8685 | 3.84 | 4.31 | 4.89 | 5.73 | 6.8 | 8.05 | 9.49 | 11.3 | 13.5 | 15.8
x2 = 0.9188 | 4.19 | 4.92 | 5.74 | 6.72 | 8.05 | 9.62 | 11.4 | 13.7 | 16.4 | 19.4

CCC(C)n1ncn(-c2ccc(N3CCN(c4ccc(OCC5COC(Cn6cncn6)(c6ccc(Cl)cc6Cl)O5)cc4)CC3)cc2)c1=O (configuration not stated) + ClCCl + CCCCO
solubility (g/100 g solution)
Conditions | x2 = 0.08928 | x2 = 0.1807 | x2 = 0.2744 | x2 = 0.3704 | x2 = 0.4687 | x2 = 0.5696 | x2 = 0.6731 | x2 = 0.7792 | x2 = 0.8882
288.15 K | 0.0509 | 0.143 | 0.594 | 1.83 | 4.18 | 9.32 | 14.8 | 19.8 | 22
293.15 K | 0.0634 | 0.189 | 0.775 | 2.27 | 5.04 | 10.4 | 16 | 20.9 | 23.1
298.15 K | 0.078 | 0.249 | 1 | 2.81 | 5.97 | 11.6 | 17 | 22.1 | 24.2
303.15 K | 0.0948 | 0.323 | 1.28 | 3.4 | 7.13 | 12.8 | 18.2 | 23.1 | 25.3
308.15 K | 0.115 | 0.412 | 1.64 | 4.11 | 8.37 | 14 | 19.3 | 24.2 | 26.4

CCCCCOC(=O)Nc1nc(=O)n(C2OC(C)C(O)C2O)cc1F (configuration not stated) + CCOC(C)=O + CCCCCC
solubility (g/100 g solution)
Conditions | 278.15 K | 283.15 K | 288.15 K | 293.15 K | 298.15 K | 303.15 K | 308.15 K | 313.15 K | 318.15 K | 323.15 K
x2 = 0.09988 | 0.0133 | 0.0183 | 0.0254 | 0.0345 | 0.0462 | 0.0616 | 0.0815 | 0.107 | 0.139 | 0.18
x2 = 0.2008 | 0.0154 | 0.0212 | 0.0286 | 0.0382 | 0.0506 | 0.0664 | 0.0863 | 0.111 | 0.143 | 0.181
x2 = 0.3 | 0.0501 | 0.0621 | 0.0766 | 0.0936 | 0.113 | 0.137 | 0.165 | 0.197 | 0.233 | 0.276
x2 = 0.4 | 0.113 | 0.134 | 0.159 | 0.219 | 0.187 | 0.255 | 0.296 | 0.341 | 0.392 | 0.448
x2 = 0.5003 | 0.141 | 0.171 | 0.207 | 0.248 | 0.296 | 0.351 | 0.413 | 0.484 | 0.565 | 0.655
x2 = 0.6 | 0.309 | 0.384 | 0.474 | 0.581 | 0.706 | 0.853 | 1.02 | 1.22 | 1.45 | 1.71
x2 = 0.6998 | 0.423 | 0.535 | 0.67 | 0.833 | 1.03 | 1.26 | 1.53 | 1.85 | 2.22 | 2.65
x2 = 0.7998 | 0.53 | 0.694 | 0.902 | 1.16 | 1.48 | 1.87 | 2.34 | 2.91 | 3.58 | 4.39
x2 = 0.8999 | 0.819 | 1.09 | 1.43 | 1.85 | 2.38 | 3.04 | 3.84 | 4.8 | 5.96 | 7.33

Nc1nccnc1Cl + CO + O
solubility (g/100 g solution)
Conditions | 278.15 K | 283.15 K | 288.15 K | 293.15 K | 298.15 K | 303.15 K | 308.15 K | 313.15 K | 318.15 K | 323.15 K
x2 = 0.05881 | 0.0549 | 0.0728 | 0.0951 | 0.118 | 0.143 | 0.169 | 0.195 | 0.225 | 0.254 | 0.284
x2 = 0.1233 | 0.118 | 0.155 | 0.201 | 0.248 | 0.298 | 0.348 | 0.402 | 0.461 | 0.517 | 0.578
x2 = 0.1942 | 0.209 | 0.274 | 0.352 | 0.433 | 0.519 | 0.604 | 0.695 | 0.795 | 0.89 | 0.996
x2 = 0.2727 | 0.322 | 0.42 | 0.538 | 0.661 | 0.79 | 0.918 | 1.06 | 1.21 | 1.35 | 1.51
x2 = 0.3599 | 0.423 | 0.542 | 0.697 | 0.868 | 1.06 | 1.24 | 1.44 | 1.66 | 1.86 | 2.1
x2 = 0.4576 | 0.533 | 0.708 | 0.918 | 1.15 | 1.37 | 1.6 | 1.86 | 2.13 | 2.4 | 2.73
x2 = 0.5675 | 0.656 | 0.886 | 1.15 | 1.42 | 1.7 | 1.98 | 2.31 | 2.65 | 3.02 | 3.44
x2 = 0.6923 | 0.804 | 1.06 | 1.35 | 1.67 | 1.97 | 2.3 | 2.71 | 3.13 | 3.58 | 4.07
x2 = 0.835 | 0.917 | 1.2 | 1.55 | 1.95 | 2.37 | 2.78 | 3.25 | 3.75 | 4.25 | 4.86
